Like-named read-outs stand apart in the source and are kept apart here.
Assays:
[1] = test system: Huh7 cells; experiment: MTT cell proliferation/viability assay, Huh7; assay type: cell-based, human; conditions: Huh7 vs U2OS, 72 h
Procedure: MPPs were tested for effects on cell proliferation and viability using MTT (3‐(4,5‐dimethylthiazol‐2‐yl)‐2,5‐diphenyltetrazolium bromide) dye conversion assay (Cell Titer 96, Promega) as we described[22] with some modifications. Cells were plated into 96 well plates and allowed to attach overnight. MPPs were added to the cultures and then incubated for the times indicated. At assay time, MTT reagent was added and absorbance measured at 570 nm. Controls included buffer blanks containing MPP because of background absorbances reported for MPPs by us[22] and others.[23] The formula used for determination of viable cells relative to controls was: %viablecells=(abssample‐absblank)/(absconrtrol‐absblank)×100

[2] = test system: TERT, β-catenin, and cyclin D1 expression; experiment: Western blot of proliferative proteins in Huh7 cells; assay type: cell-based, human; conditions: Huh7, 48 h
Procedure: For SDS ‐PAGE, cellular lysates, and protein preparations such as IP were dissolved in Laemmli buffer, boiled for 1 min and separated on denaturing SDS gels as described.[28] After electrophoretic transfer of separated proteins to nitrocellulose sheets, western blot immunoassays employed enhanced chemiluminescence for signal detection (ECL^TM Prime, Amersham).[28]

[3] = biological target: T1, Taq DNA polymerase (Thermus aquaticus, UniProt P19821); experiment: Taq polymerase inhibition test, MPP added after the telomerase extension step of TRAP; assay type: biochemical
T1 construct: purchased Perkin‐Elmer Cetus, Norwalk, CT
Procedure: (§1) For TRAP assay, a Quantitative Telomerase Detection Kit (US Biomax, Inc) was used to assay cellular lysates or TERT immunoprecipitates (IP) according to the manufacturer's directions. Relative telomerase activity was derived from a standard curve of reference samples and data were analyzed using relative fluorescence units as compared to controls. In some cases, telomerase reaction products were visualized and quantified with TRAPeze system (EMD/Millipore). After separation of the DNA products using 10% non‐denaturing PAGE and SYBR fluorescence labeling [1x SYBR safe DNA gel stain (Invitrogen)], gel bands were imaged with iBright 1500 (Invitrogen). The intensity of the sample's TRAP ladder and internal control was first measured using GelAnalyzer [GelAnalyzer 19.1 (www.gelanalyzer.com )] as recommended. Then, the relative telomerase activity was determined by the ratio of the intensity of the sample's TRAP ladder (telomerase products, TP) to that of the internal control (IC) band.
Because of concerns that some quadruplex ligands inhibit Taq DNA polymerase in addition to telomerase, we assayed MPP inhibition at both steps of the TRAP procedure with a strategy similar to that of others.[36] Using equivalent extracts but separate assays, MPP was either included in the telomerase RT extension step or the extension step was conducted without MPP and then MPP added only for the amplification steps with Taq DNA polymerase. To avoid further potential errors introduced by Real‐time quantification, TRAP products were labeled with SYBR green, visualized on denaturing gels, and each lane was quantified by density measurements as described in the Methods. The latter step also ruled out the possibility that decreases in activity were artifactual due to fluorescence signal quenching by some MPPs.[37] […] All three MPPs had minimal effects on Taq polymerase […] and the slight inhibition of Taq polymerase seen for ZnPP was not directly concentration‐dependent.
Enzymatic extracts were prepared from semi-confluent Huh7 cells and aliquots were assayed in triplicate using TRAP assay. CoPP was added to RT-PCR reactions either before or after the RT telomere elongation step to test whether it inhibited Taq polymerase. Visualization of amplified telomeric products was on 12% denaturing gels using SYBR fluorescence labelling (upper panels). Quantification was with densitometry as described in Methods and plot shown (lower panel). Plotted points represent the mean +/- SD with n =3. (IC)= internal Taq polymerase control.

[4] = biological target: T2, telomerase activity in Huh7 cells (Homo sapiens, UniProt O14746); experiment: Telomerase activity by TRAP after incubation of intact Huh7 cells with MPP; assay type: cell-based
T2 construct: Enzymatic extracts were prepared from semi‐confluent phase Huh7 cells and aliquots were assayed in triplicate using TRAP assay; endogenous in cells; host or cells: Huh7
Procedure: (§2) Telomerase reverse transcriptase (TERT) enzymatic activity was determined using Telomeric Repeat Amplification Protocol (TRAP) with Real‐time quantification as described previously,[25] or measured directly using α‐^32P‐dGTP incorporation as described[26] with modifications as below.
as §1
(§3) The EC50 was the extracellular concentration of MPP inhibitor calculated to result in 50% reduction of cellular telomerase activity after incubation in whole cells. Similarly, IC50 was the concentration of MPP inhibitor necessary to inhibit 50% of telomerase enzyme activity in vitro in cellular lysates. Both were calculated using GraphPad as directed and verified graphically on plots of enzyme activity vs inhibitor concentration.

[5] = biological target: T3, telomerase activity in Hek293 cells (Homo sapiens, UniProt O14746); experiment: Telomerase activity by TRAP after incubation of intact Hek293 cells with MPP; assay type: cell-based
T3 construct: Log phase Huh7, Hek293 and Huh5.15 HCV replicon cells; endogenous in cells; host or cells: Hek293 (wild type)
Procedure: as §2, §1, §3

[6] = biological target: T4, telomerase (Homo sapiens, UniProt O14746); experiment: Direct α-32P-dGTP telomerase extension assay, IP eluates of HEK-293T cells overexpressing TERT, TERC and dyskerin; assay type: biochemical; parameters: purchased Abbexa Ltd (UK) Abx069991; host or cells: HEK-293T cells overexpressing TERT, TERC and dyskerin; conditions: Table 2b; mean of 2–4 experiments
Procedure: For direct telomerase activity assay, a modified procedure of Tomlinson et al[26] was used. Briefly, HEK‐293T cell pellet from 10^7 cells overexpressing TERT, TERC, and dyskerin was obtained from Abbexa Ltd (UK. Abx069991). The whole‐cell lysate was produced using 1ml buffer A [20 mM HEPES‐KOH buffer (pH 8), 300 mM KCl, 2 mM MgCl2, 0.1% v/v Triton X‐100, 10% v/v glycerol]. Immunoprecipitation of telomerase was performed with anti‐hTERT polyclonal sheep antibody (abx120550, Abbexa, U.K.). The telomerase was finally eluted with hTERT peptide (abx069990, Abbexa, U.K.). 10µl of eluates were mixed with different concentrations of MPP and incubated on ice for 2 h. Then the pellet‐MPP complex was added to the extension reaction mixture composed of 1x telomerase buffer, 300 mM KCl, 1 µM Bio‐L‐18GGG, 1 mM dATP, 1 mM dTTP, 10 µM dGTP, 20 µCi α‐^32P‐dGTP, 10 mM DTT, 5’ biotinylated DNA substrate (5’‐CTAGACCTGTCATCA(TTAGGG)3‐3’) and 10% glycerol. The reaction was conducted at 37 °C for 2 h. The purification of telomerase extension products employed Dynabeads M‐280 streptavidin. Five microliters of purified products were loaded on 6% sequencing gel (TBE‐UREA denaturing gel) with Model S2 Sequencing Gel Electrophoresis Apparatus (LabRepCo, Horsham, PA). […] This screen was then scanned using a STORM phosphorimager (Molecular Dynamics), and bands were quantified using GelAnalyzer as described above. […]
Target sequence in this assay (O14746 whole entry): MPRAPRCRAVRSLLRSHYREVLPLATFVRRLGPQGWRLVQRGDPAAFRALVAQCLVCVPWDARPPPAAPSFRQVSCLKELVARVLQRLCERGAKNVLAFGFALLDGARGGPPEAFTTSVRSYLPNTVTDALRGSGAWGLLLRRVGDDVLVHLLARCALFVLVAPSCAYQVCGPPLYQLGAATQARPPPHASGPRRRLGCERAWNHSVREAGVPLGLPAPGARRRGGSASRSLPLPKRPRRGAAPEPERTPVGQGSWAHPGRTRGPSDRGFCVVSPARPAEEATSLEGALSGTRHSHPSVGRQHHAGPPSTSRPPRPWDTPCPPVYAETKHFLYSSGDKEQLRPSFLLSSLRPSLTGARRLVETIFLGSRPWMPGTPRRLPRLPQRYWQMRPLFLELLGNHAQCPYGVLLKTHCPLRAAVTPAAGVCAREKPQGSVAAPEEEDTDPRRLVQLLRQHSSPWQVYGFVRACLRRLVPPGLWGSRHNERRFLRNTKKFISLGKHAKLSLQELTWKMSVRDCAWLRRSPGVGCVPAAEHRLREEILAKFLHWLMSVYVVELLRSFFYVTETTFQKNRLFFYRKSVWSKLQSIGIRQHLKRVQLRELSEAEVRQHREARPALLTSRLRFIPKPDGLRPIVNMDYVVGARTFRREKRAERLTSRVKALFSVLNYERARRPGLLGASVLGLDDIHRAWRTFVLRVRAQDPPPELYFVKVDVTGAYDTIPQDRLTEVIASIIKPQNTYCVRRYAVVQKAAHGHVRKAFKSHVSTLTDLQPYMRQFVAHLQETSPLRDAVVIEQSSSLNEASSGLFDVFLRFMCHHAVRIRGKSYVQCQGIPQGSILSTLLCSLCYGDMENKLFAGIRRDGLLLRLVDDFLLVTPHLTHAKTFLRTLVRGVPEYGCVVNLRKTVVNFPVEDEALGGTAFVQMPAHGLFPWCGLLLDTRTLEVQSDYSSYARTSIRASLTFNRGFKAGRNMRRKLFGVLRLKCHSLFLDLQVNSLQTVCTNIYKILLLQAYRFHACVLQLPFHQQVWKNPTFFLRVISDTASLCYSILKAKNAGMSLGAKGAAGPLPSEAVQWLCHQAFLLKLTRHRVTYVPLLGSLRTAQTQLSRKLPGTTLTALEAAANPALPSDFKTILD
Target sequence in this assay (O60832 whole entry partner): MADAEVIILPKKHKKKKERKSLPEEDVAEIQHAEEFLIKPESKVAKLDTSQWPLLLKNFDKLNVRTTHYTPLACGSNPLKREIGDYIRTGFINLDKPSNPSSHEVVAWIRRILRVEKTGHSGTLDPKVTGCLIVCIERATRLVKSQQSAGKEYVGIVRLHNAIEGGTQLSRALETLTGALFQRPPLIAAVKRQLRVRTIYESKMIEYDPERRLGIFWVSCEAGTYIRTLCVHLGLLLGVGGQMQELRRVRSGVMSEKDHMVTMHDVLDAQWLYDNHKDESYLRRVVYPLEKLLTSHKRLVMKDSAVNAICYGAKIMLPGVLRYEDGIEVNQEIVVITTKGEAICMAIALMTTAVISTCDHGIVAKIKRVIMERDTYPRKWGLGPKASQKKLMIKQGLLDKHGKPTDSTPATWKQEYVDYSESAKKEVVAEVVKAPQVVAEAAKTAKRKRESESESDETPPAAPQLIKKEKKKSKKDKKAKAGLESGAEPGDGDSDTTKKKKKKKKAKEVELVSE
Target sequence in this assay (Q9NPE3 whole entry partner): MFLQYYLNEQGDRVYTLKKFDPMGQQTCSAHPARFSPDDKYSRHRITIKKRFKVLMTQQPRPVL
Target sequence in this assay (Q9NX24 whole entry partner): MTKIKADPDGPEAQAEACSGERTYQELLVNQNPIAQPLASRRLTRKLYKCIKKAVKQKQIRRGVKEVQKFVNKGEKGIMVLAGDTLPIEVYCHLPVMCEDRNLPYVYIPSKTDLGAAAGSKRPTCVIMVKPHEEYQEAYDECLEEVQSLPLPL
Target sequence in this assay (Q9NY12 whole entry partner): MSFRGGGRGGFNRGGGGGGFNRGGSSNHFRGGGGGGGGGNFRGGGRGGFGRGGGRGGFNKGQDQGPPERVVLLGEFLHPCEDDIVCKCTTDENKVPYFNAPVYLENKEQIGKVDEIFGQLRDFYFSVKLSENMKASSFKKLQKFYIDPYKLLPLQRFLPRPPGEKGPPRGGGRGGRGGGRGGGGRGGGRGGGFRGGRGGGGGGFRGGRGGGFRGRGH

[7] = biological target: T4, telomerase; experiment: TRAP (TRAPeze) telomerase activity assay in Huh7 cellular lysates/enzymatic extracts; assay type: biochemical; parameters: Enzymatic extracts were prepared from semi‐confluent phase Huh7 cells and aliquots were assayed in triplicate using TRAP assay; endogenous in cells; host or cells: Huh7
Procedure: as §2, §1, §3
Target sequence in this assay (O14746 whole entry): as the sequence (O14746 whole entry) above
Target sequence in this assay (O60832 whole entry partner): as the sequence (O60832 whole entry partner) above
Target sequence in this assay (Q9NPE3 whole entry partner): as the sequence (Q9NPE3 whole entry partner) above
Target sequence in this assay (Q9NX24 whole entry partner): as the sequence (Q9NX24 whole entry partner) above
Target sequence in this assay (Q9NY12 whole entry partner): as the sequence (Q9NY12 whole entry partner) above
Target sequence in this assay (Q9BUR4 whole entry partner): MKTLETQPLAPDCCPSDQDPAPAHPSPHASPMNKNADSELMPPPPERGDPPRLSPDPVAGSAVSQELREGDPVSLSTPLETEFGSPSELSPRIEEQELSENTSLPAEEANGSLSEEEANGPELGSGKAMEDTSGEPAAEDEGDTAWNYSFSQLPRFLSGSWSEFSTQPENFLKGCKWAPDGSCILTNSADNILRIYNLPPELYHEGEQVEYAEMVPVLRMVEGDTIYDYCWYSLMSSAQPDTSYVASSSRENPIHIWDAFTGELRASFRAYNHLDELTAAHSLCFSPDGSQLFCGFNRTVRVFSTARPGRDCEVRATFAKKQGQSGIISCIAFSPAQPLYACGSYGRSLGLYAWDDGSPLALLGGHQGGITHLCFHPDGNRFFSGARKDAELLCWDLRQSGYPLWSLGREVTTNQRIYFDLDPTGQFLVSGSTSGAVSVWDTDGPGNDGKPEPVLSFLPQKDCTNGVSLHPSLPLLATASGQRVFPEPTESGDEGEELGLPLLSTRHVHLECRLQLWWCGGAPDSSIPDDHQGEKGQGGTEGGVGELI

[8] = test system: high molecular weight complexes containing telomerase; experiment: Fluorescent labelling of cellular lysate complexes on non-denaturing 0.8% agarose gels; assay type: binding, human; conditions: Huh7 lysates, fluorescence visualization
Procedure: 0.8% Agarose gels were run in Tris‐Borate‐EDTA buffer using standard slab gels as described for high molecular weight complexes.[27] Cell lysates were produced by lysing Hek293 and Huh7 cells in NP40 buffer (25 mM HEPES‐KOH, 150 mM KCl, 1.5mM MgCl2, 10% glycerol, 0.5% NP40, 5 mM 2ME, pH 7.5 supplemented with protease inhibitors) for 30 min on ice. Extracts were clarified by centrifugation for 16 000 g for 10 min. The protein concentration was determined by Bradford assay. The indicated amounts of proteins were treated with different amounts of ZnPP for 2 h on ice, and then separated on 0.8% Agarose gels prepared with 0.5xTris‐Borate‐EDTA (TBE) buffer. The gels were run at 100 V for 2 h at 4 °C in 0.5x TBE buffer. […] No antibody and normal rabbit IgG (sc‐2027, Santa Cruz Biotechnology) were included as controls. The IP products were treated with ZnPP and electrophoresed as above. Free ZnPP and ZnPP bound to large complexes were visualized using a wide‐wavelength UV lightbox or with red fluorescence using excitation (EX) 608–632 nm and emission (EM) 675–720 nm. Thyroglobulin (670 kD), a heavy MW marker, was run in parallel lanes and visualized with Coomassie Blue staining or fluorescence to size the complexes. In some cases, cell lysates or IP were incubated with RNase A (Life Technologies, NY); or DNase 1 (Qiagen, CA) 100 µg/ml for 1 h at 4 °C prior to electrophoresis.

[9] = TRAP, MPP added for the amplification steps only
[10] = Figure 3A upper panel, 48 h, read-out: EC50 of telomerase activity in cultured Huh7 cells
[11] = Table 2c, mean of 2–4 experiments, 48 h incubation, read-out: EC50, intact Huh7 cells [TRAP]
[12] = Figure 3A middle panel, 48 h, read-out: EC50 of telomerase activity in cultured Hek293 cells
[13] = Table 2d, mean of 2–4 experiments, 48 h incubation, read-out: EC50, intact Hek293 cells [TRAP]
[14] = Table 2a, mean of 2–4 experiments, 6 inhibitor concentrations 0–20 µM, read-out: IC50, cellular lysates [Trapeze]
[15] = individual experiment, Figure 3B-D, gel densitometry, read-out: IC50 of telomerase activity, TRAP in Huh7 extracts

T1 sequence (P19821 whole entry): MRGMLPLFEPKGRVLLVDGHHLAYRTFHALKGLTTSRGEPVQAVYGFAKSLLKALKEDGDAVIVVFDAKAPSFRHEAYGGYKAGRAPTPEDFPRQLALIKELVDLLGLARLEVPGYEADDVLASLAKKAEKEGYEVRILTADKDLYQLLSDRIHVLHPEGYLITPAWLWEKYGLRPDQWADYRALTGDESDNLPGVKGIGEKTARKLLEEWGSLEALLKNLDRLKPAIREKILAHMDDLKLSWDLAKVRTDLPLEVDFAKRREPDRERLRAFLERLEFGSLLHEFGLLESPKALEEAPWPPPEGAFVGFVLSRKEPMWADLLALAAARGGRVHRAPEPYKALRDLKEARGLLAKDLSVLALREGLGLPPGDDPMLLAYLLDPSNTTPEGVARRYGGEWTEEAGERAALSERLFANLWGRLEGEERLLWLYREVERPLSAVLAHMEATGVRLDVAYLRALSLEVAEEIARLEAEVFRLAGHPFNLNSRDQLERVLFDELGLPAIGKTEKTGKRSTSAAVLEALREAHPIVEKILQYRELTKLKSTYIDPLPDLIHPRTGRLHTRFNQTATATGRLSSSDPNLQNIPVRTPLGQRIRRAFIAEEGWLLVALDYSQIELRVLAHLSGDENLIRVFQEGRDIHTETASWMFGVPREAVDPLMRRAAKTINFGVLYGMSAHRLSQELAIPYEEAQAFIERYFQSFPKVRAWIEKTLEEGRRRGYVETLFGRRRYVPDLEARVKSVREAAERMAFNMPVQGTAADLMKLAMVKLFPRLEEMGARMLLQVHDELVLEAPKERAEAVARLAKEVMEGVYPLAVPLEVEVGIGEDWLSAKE
T3 sequence (O14746 whole entry): as the sequence (O14746 whole entry) above
T3 sequence (O60832 whole entry partner): as the sequence (O60832 whole entry partner) above
T3 sequence (Q9NPE3 whole entry partner): as the sequence (Q9NPE3 whole entry partner) above
T3 sequence (Q9NX24 whole entry partner): as the sequence (Q9NX24 whole entry partner) above
T3 sequence (Q9NY12 whole entry partner): as the sequence (Q9NY12 whole entry partner) above
T3 sequence (Q9BUR4 whole entry partner): as the sequence (Q9BUR4 whole entry partner) above
T2 sequence (O14746 whole entry): as the sequence (O14746 whole entry) above
T2 sequence (O60832 whole entry partner): as the sequence (O60832 whole entry partner) above
T2 sequence (Q9NPE3 whole entry partner): as the sequence (Q9NPE3 whole entry partner) above
T2 sequence (Q9NX24 whole entry partner): as the sequence (Q9NX24 whole entry partner) above
T2 sequence (Q9NY12 whole entry partner): as the sequence (Q9NY12 whole entry partner) above
T2 sequence (Q9BUR4 whole entry partner): as the sequence (Q9BUR4 whole entry partner) above

SMILES	Effect on proliferation, telomerase-expressing vs telomerase negative line [1]	Effect on expression of TERT, β-catenin and cyclin D1 (western blot) [2]	Effect on Taq polymerase [3, 9]	Effect on Taq polymerase ([3]; concentrations of 5-10 µM, Figure S2)	EC50 [4, 10]	EC50 [4, 11]	EC50 [5, 12]	EC50 [5, 13]	IC50 [6]	IC50 [7, 14]	IC50 [7, 15]	Labelling/binding of cellular complexes on agarose gels [8]
C/C(=C\C(=O)Nc1ccccc1C(=O)O)c1ccc2ccccc2c1 [BIBR, reference compound]	greater propensity to decrease proliferation											
C=CC1=C(C)c2cc3[n-]c(cc4nc(cc5[n-]c(cc1n2)c(C)c5CCC(=O)[O-])C(CCC(=O)[O-])=C4C)c(C)c3C=C.[Co+2].[H+].[H+] [CoPP, cobalt protoporphyrin]		failed to significantly alter	clearly inhibited Taq polymerase	potent antagonist								
C=CC1=C(C)c2cc3[n-]c(cc4[n-]c(cc5nc(cc1n2)C(C)=C5C=C)c(C)c4CCC(=O)O)c(CCC(=O)O)c3C.[Fe+2] [FePP, iron protoporphyrin (heme)]		failed to significantly alter	minimal inhibition		> 10 µM	> 20 µM	> 10 µM	> 20 µM	18.3 µM	> 20 µM	> 10 µM	
C=Cc1c2[n-]c(c1C)/C=c1\[n-]/c(c(C)c1C=C)=C\c1[n-]c(c(CCC(=O)O)c1C)/C=c1\[n-]c(c(C)c1CCC(=O)O)=C2.[Sn+4] [SnPP, tin protoporphyrin]		failed to significantly alter	minimal inhibition		> 10 µM	10.8 µM	> 10 µM	> 20 µM	> 20 µM	12 µM	> 10 µM	did not label a discernable cellular complex

Source: paper PMC8573827, “Zinc protoporphyrin binding to telomerase complexes and inhibition of telomerase activity” (Pharmacology Research & Perspectives, 2021)
